Measurements published in publication PMC8297771 (PLoS Pathogens, 2021).

Tests used:
[1] = system: MT4 cells; test: Tissue culture cytotoxicity measurement in MT4 cells; format: cell-based
Description: Fig 1 ALLINI structures and STP0404 activities. […] Pyridine-based KF116, D. Pyrrolopyridine-based STP0404. The conserved chemical moiety containing tert-butoxy and carboxylic acid groups are marked by “]”.

[2] = system: Ral-resistant (8070_1) clinical isolate; test: In vitro anti-viral assay in human PBMCs (RT activity readout); format: cell-based, HIV-1
Description: (§1) For the assay with human PBMCs, PHA stimulated cells from at least two pooled healthy were infected with HIV-1 strains in 96-well plates. Test drug dilutions, which were prepared at a 2X concentration in microtiter tubes and 100 μL of each concentration (nine total concentrations), were placed in appropriate wells using the standard format. 50 μL of a predetermined dilution of virus stock was placed in each test well (final MOI ≅ 0.1). The PBMC cultures were maintained for 7 days following infection at 37 °C, 5% CO2. After this period, cell-free supernatant samples were collected for analysis of reverse transcriptase (RT) activity. All assays were conducted in triplicates. For RT assay, a microtiter plate-based reverse transcriptase (RT) reaction was utilized (Buckheit et al., AIDS Research and Human Retroviruses 7:295–302, 1991). Tritiated thymidine triphosphate (^3H-TTP, 80 Ci/mmol, NEN) is received in 1:1 dH2O: Ethanol at 1 mCi/mL. Poly rA:oligo dT template:primer (GE Healthcare) was prepared as a stock solution by combining 150 μL poly rA (20 mg/mL) with 0.5 mL oligo dT (20 units/mL) and 5.35 mL sterile dH2O followed by aliquoting (1.0 mL) and storage at—20°C. The RT reaction buffer was prepared fresh on a daily basis and consisted of 125 μL 1.0 M EGTA, 125 μL dH2O, 125 μL 20% Triton X100, 50 μL 1.0 M Tris (pH 7.4), 50 μL 1.0 M DTT, and 40 μL 1.0 M MgCl2. The final reaction mixture was prepared by combining 1 part ^3H-TTP, 4 parts dH2O, 2.5 parts poly rA:oligo dT stock and 2.5 parts reaction buffer. Ten microliters of this reaction mixture were placed in a round bottom microtiter plate and 15 μL of virus containing supernatant is added and mixed. The plate was incubated at 37°C for 60 mins. Following incubation, the reaction volume was spotted onto DE81 filter-mats (Wallac), washed 5 times for 5 mins each in a 5% sodium phosphate buffer or 2X SSC (Life Technologies). Next they were washed 2 times for 1 min each in distilled water, 2 times for 1 min each in 70% ethanol, and then dried. Incorporated radioactivity (counts per min, CPM) was quantified using standard liquid scintillation techniques. These PBMC analysis was conducted by fee to service through Southern Research Institute (Frederick, MD, USA). The IC50 were analyzed using GraphPad Prism (Version 9) and presented as means ± S.D. of the triplicates.

[3] = system: Ral-resistant (1556_1) clinical isolate; test: as above; format: cell-based, HIV-1
Description: as §1

[4] = system: Ral-resistant (8070_2) clinical isolate; test: as above; format: cell-based, HIV-1
Description: as §1

[5] = system: Ral-resistant (4736_4) clinical isolate; test: as above; format: cell-based, HIV-1; conditions: human PBMCs, Ral-resistant (4736_4)
Description: as §1

[6] = system: Ral-resistant (4736_2) clinical isolate; test: as above; format: cell-based, HIV-1; conditions: human PBMCs, Ral-resistant (4736_2)
Description: as §1

[7] = system: HIV-1_89.6; test: In vitro anti-viral assay in CEMx174 cells (p24); format: cell-based
Description: CEMx174 cells were infected with HIV-1 primary isolate 89.6 (From infectious clone p89.6, NIH AIDS Reagent Program) at approximately at 10% of cell population determined by FACS analyses. To determine antiviral activity during virus production, STP0404 was added at concentration in the range of 0.1 nM—10 μM during media exchange at 4 hrs post-infection. DMSO was used as a negative control. Cell-free supernatants were measured for p24 antigen production, 5 days post-infection. The anti-HIV-1 efficacy of the two enantiomers of STP0404 were also determined by using the same protocol. All assays were conducted in triplicates. The IC50 values were computed using GraphPad Prism (Version 9) and presented as means ± S.D. of the triplicates. For SIVmac239, CEMx174 cells were infected with viral supernatant containing SIVmac293 at 50,000 TCID50/mL (kind gift from Dr. G. Silvestri, Emory Yerkes National Primate Research Center) with 100 μL/10^6 cells at varying concentrations of STP0404, BI224436, and Raltegravir, and the same above protocol was followed except for that p27 capsid antigen content was measured daily for 5 days post infection.

[8] = Plasma protein binding (equilibrium dialysis); format: in vitro ADME; conditions: Sprague-Dawley (rat), beagle (dog), cynomolgus monkey, pH 7.4, monkey and human plasma, read-out: In vitro protein binding
Description: The current study utilized the 96-well equilibrium dialysis device purchased from HTDialysis to dialyze the test compound and the control compound at 2 μM in plasma at 37±1°C for 4 hrs. Plasma prepared from Sprague-Dawley rats, beagle dog, cynomolgus monkey and humans were previously frozen at below -60°C. The dialysis membrane strips were soaked in ultra-pure water at room temperature for approximately 1 hr. After that, each membrane strip that contains 2 membranes was separated and soaked in ethanol:water (20,80 v,v) for approximately 20 mins, after which it was ready for use or was stored in the solution at 2–8°C for up to a month. Prior to the experiment, the membrane was rinsed and soaked for 20 mins in ultra-pure water. On the day of experiment, the plasma from Sprague-Dawley rats, beagle dogs, cynomolgus monkey and humans was thawed under running cold tap water and centrifuged at 3220×g for 5 mins to remove any clots and the pH value of the resulting plasma will be checked. if required, adjusted to 7.4 ± 0.1. All samples were further processed by protein precipitation for LC/MS/MS analysis (Wuxi AppTec, China).

[9] = Human immunodeficiency virus 1, PBMC
[10] = Human immunodeficiency virus 1, PBMC, read-out: IC50
[11] = Human immunodeficiency virus 1, CEMx174

Cc1nc2c(c(C)c(C)n2Cc2cnn(C)c2)c(-c2ccc(Cl)cc2)c1[C@H](OC(C)(C)C)C(=O)O [STP0404]
TC50 [1]: > 10,000 nM | IC50 [2, 9]: 0.06 ± 0.07 nM | TI (TC50 / IC50) ([2]; human PBMCs, Ral-resistant (8070_1)): >166,000 | TI (TC50 / IC50) [3]: >125,000 | IC50 [3, 9]: 0.08 ± 0.04 nM | TI (TC50 / IC50) [4]: >43,400 | IC50 [4, 9]: 0.23 ± 0.39 nM | IC50 [5, 10]: 0.04 ± 0.06 nM | TI (TC50 / IC50) [5]: >250,000 | IC50 [6, 10]: 0.03 ± 0.04 nM | TI (TC50 / IC50) [6]: >330,000 | TI (TC50 / IC50) ([7]; HIV-1 89.6 / CEMx174 cells): > 7,140 | IC50 [7, 11]: 1.4 nM | IC90 [7, 11]: 21 nM | fraction unbound at 4 h, 2 μM [8]: 0.003 to 0.061
